# According to ChEMBL document CHEMBL1201862, “PubChem BioAssay data set” (2004):
#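 Values below derive from 48-hour exposures of cells grown in 96-well plates, with endpoints linearly interpolated between the two concentrations bracketing the appropriate inhibition level. GI50: concentration for 50% inhibition of growth.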 Active and inactive are the calls of the source. No stated cut-off is given here; in the data, active = GI50 up to about 1.1 µM and inactive = higher.
# Experiments:
# Experiment in all cases: DTP human tumour cell line panel, 48 h
# 786-0 = tested on: 786-0
# A498 = tested on: A498
# A549 = tested on: A549
# ACHN = tested on: ACHN
# BT-549 = tested on: BT-549
# CAKI-1 = tested on: CAKI-1
# CCRF-CEM = tested on: CCRF-CEM
# COLO 205 = tested on: COLO 205
# DU-145 = tested on: DU-145
# EKVX = tested on: EKVX
# HCC 2998 = tested on: HCC 2998
# HCT-116 = tested on: HCT-116
# HCT-15 = tested on: HCT-15
# HL-60 = tested on: HL-60
# HOP-62 = tested on: HOP-62
# HT-29 = tested on: HT-29
# Hs-578T = tested on: Hs-578T
# IGROV-1 = tested on: IGROV-1
# K562 = tested on: K562
# KM12 = tested on: KM12
# LOX IMVI = tested on: LOX IMVI
# MCF7 = tested on: MCF7
# MDA-MB-231 = tested on: MDA-MB-231
# MDA-MB-435 = tested on: MDA-MB-435
# MDA-N = tested on: MDA-N
# MOLT-4 = tested on: MOLT-4
# Malme-3M = tested on: Malme-3M
# NCI-H226 = tested on: NCI-H226
# NCI-H23 = tested on: NCI-H23
# NCI-H460 = tested on: NCI-H460
# NCI-H522 = tested on: NCI-H522
# NCI/ADR-RES = tested on: NCI/ADR-RES
# OVCAR-3 = tested on: OVCAR-3
# OVCAR-5 = tested on: OVCAR-5
# OVCAR-8 = tested on: OVCAR-8
# PC-3 = tested on: PC-3
# RPMI-8226 = tested on: RPMI-8226
# RXF 393 = tested on: RXF 393
# SF-268 = tested on: SF-268
# SF-295 = tested on: SF-295
# SF-539 = tested on: SF-539
# SK-MEL-28 = tested on: SK-MEL-28
# SK-MEL-5 = tested on: SK-MEL-5
# SN12C = tested on: SN12C
# SNB-19 = tested on: SNB-19
# SNB-75 = tested on: SNB-75
# SR = tested on: SR
# SW-620 = tested on: SW-620
# T47D = tested on: T47D
# TK-10 = tested on: TK-10
# U-251 = tested on: U-251
# UACC-257 = tested on: UACC-257
# UO-31 = tested on: UO-31
# M14 = tested on: M14
# OVCAR-4 = tested on: OVCAR-4
# SK-MEL-2 = tested on: SK-MEL-2
# SK-OV-3 = tested on: SK-OV-3
# UACC-62 = tested on: UACC-62
smiles,measurement,setting,value
COc1ccc(/C=C/C(=O)c2cc(CN(C)C)c(O)c(CN(C)C)c2)cc1,GI50,786-0,74 µM (inactive)
same,GI50,A498,19.7 µM (inactive)
same,GI50,A549,27.6 µM (inactive)
same,GI50,ACHN,27.9 µM (inactive)
same,GI50,BT-549,27.9 µM (inactive)
same,GI50,CAKI-1,47.5 µM (inactive)
same,GI50,CCRF-CEM,35.2 µM (inactive)
same,GI50,COLO 205,18.4 µM (inactive)
same,GI50,DU-145,34.2 µM (inactive)
same,GI50,EKVX,49.8 µM (inactive)
same,GI50,HCC 2998,> 10 µM (inactive)
same,GI50,HCT-116,24.2 µM (inactive)
same,GI50,HCT-15,40 µM
same,GI50,HL-60,22.9 µM (inactive)
same,GI50,HOP-62,21.8 µM (inactive)
same,GI50,HT-29,27.7 µM (inactive)
same,GI50,Hs-578T,43.6 µM (inactive)
same,GI50,IGROV-1,37 µM (inactive)
same,GI50,K562,26.7 µM (inactive)
same,GI50,KM12,17.7 µM (inactive)
same,GI50,LOX IMVI,14.2 µM (inactive)
same,GI50,MCF7,36.6 µM (inactive)
same,GI50,MDA-MB-231,23.2 µM (inactive)
same,GI50,MDA-MB-435,44 µM (inactive)
same,GI50,MDA-N,21.2 µM (inactive)
same,GI50,MOLT-4,28.2 µM (inactive)
same,GI50,Malme-3M,25.2 µM (inactive)
same,GI50,NCI-H226,40.1 µM (inactive)
same,GI50,NCI-H23,46.9 µM (inactive)
same,GI50,NCI-H460,18.7 µM (inactive)
same,GI50,NCI-H522,20.5 µM (inactive)
same,GI50,NCI/ADR-RES,33.1 µM (inactive)
same,GI50,OVCAR-3,18 µM (inactive)
same,GI50,OVCAR-5,> 100 µM (inactive)
same,GI50,OVCAR-8,29.8 µM (inactive)
same,GI50,PC-3,23.9 µM (inactive)
same,GI50,RPMI-8226,21.8 µM (inactive)
same,GI50,RXF 393,31.7 µM (inactive)
same,GI50,SF-268,75.9 µM (inactive)
same,GI50,SF-295,26.8 µM (inactive)
same,GI50,SF-539,45.3 µM (inactive)
same,GI50,SK-MEL-28,54.2 µM (inactive)
same,GI50,SK-MEL-5,16.2 µM (inactive)
same,GI50,SN12C,21.9 µM (inactive)
same,GI50,SNB-19,29.9 µM (inactive)
same,GI50,SNB-75,19 µM (inactive)
same,GI50,SR,31.9 µM (inactive)
same,GI50,SW-620,36.9 µM (inactive)
same,GI50,T47D,19.6 µM (inactive)
same,GI50,TK-10,40.6 µM (inactive)
same,GI50,U-251,48.1 µM (inactive)
same,GI50,UACC-257,16.5 µM (inactive)
same,GI50,UO-31,25.2 µM (inactive)
COC1OC2COC1(OC)C1OC(C)(C)OC21 (centres undefined),GI50,786-0,> 100 µM (inactive)
same,GI50,A498,> 100 µM (inactive)
same,GI50,A549,> 100 µM (inactive)
same,GI50,ACHN,> 100 µM (inactive)
same,GI50,BT-549,> 100 µM (inactive)
same,GI50,CAKI-1,> 100 µM (inactive)
same,GI50,CCRF-CEM,> 100 µM (inactive)
same,GI50,COLO 205,> 100 µM (inactive)
same,GI50,DU-145,> 100 µM (inactive)
same,GI50,EKVX,> 100 µM (inactive)
same,GI50,HCC 2998,> 100 µM (inactive)
same,GI50,HCT-116,> 100 µM (inactive)
same,GI50,HCT-15,> 100 µM
same,GI50,HOP-62,> 100 µM (inactive)
same,GI50,HT-29,> 100 µM (inactive)
same,GI50,Hs-578T,> 100 µM (inactive)
same,GI50,IGROV-1,> 100 µM (inactive)
same,GI50,K562,> 100 µM (inactive)
same,GI50,KM12,> 100 µM (inactive)
same,GI50,M14,> 100 µM (inactive)
same,GI50,MCF7,> 100 µM (inactive)
same,GI50,MDA-MB-231,> 100 µM (inactive)
same,GI50,MDA-MB-435,> 100 µM (inactive)
same,GI50,MDA-N,> 100 µM (inactive)
same,GI50,MOLT-4,> 100 µM (inactive)
same,GI50,Malme-3M,> 100 µM (inactive)
same,GI50,NCI-H226,> 100 µM (inactive)
same,GI50,NCI-H23,> 100 µM (inactive)
same,GI50,NCI-H460,> 100 µM (inactive)
same,GI50,NCI-H522,> 100 µM (inactive)
same,GI50,NCI/ADR-RES,> 100 µM (inactive)
same,GI50,OVCAR-3,> 100 µM (inactive)
same,GI50,OVCAR-4,> 100 µM (inactive)
same,GI50,OVCAR-5,> 100 µM (inactive)
same,GI50,OVCAR-8,> 100 µM (inactive)
same,GI50,PC-3,> 100 µM (inactive)
same,GI50,RPMI-8226,> 100 µM (inactive)
same,GI50,RXF 393,> 100 µM (inactive)
same,GI50,SF-268,> 100 µM (inactive)
same,GI50,SF-295,> 100 µM (inactive)
same,GI50,SK-MEL-28,> 100 µM (inactive)
same,GI50,SK-MEL-2,> 100 µM (inactive)
same,GI50,SK-MEL-5,> 100 µM (inactive)
same,GI50,SK-OV-3,> 100 µM (inactive)
same,GI50,SN12C,> 100 µM (inactive)
same,GI50,SNB-19,> 100 µM (inactive)
same,GI50,SNB-75,> 100 µM (inactive)
same,GI50,SR,> 100 µM (inactive)
same,GI50,SW-620,> 100 µM (inactive)
same,GI50,T47D,> 100 µM (inactive)
same,GI50,TK-10,> 100 µM (inactive)
same,GI50,U-251,> 100 µM (inactive)
same,GI50,UACC-257,> 100 µM (inactive)
same,GI50,UACC-62,> 100 µM (inactive)
same,GI50,UO-31,> 100 µM (inactive)
COc1cc2c(cc1OC)C(=O)N(NC1=NCCN1)C2=O,GI50,786-0,> 100 µM (inactive)
same,GI50,A498,> 100 µM (inactive)
same,GI50,A549,> 100 µM (inactive)
same,GI50,ACHN,> 100 µM (inactive)
same,GI50,BT-549,> 100 µM (inactive)
same,GI50,CAKI-1,> 100 µM (inactive)
same,GI50,CCRF-CEM,> 100 µM (inactive)
same,GI50,COLO 205,> 100 µM (inactive)
same,GI50,DU-145,> 100 µM (inactive)
same,GI50,EKVX,> 100 µM (inactive)
same,GI50,HCC 2998,> 100 µM (inactive)
same,GI50,HCT-116,> 100 µM (inactive)
same,GI50,HCT-15,> 100 µM
same,GI50,HL-60,> 100 µM (inactive)
same,GI50,HOP-62,> 100 µM (inactive)
same,GI50,HT-29,> 100 µM (inactive)
same,GI50,Hs-578T,> 100 µM (inactive)
same,GI50,IGROV-1,> 100 µM (inactive)
same,GI50,K562,> 100 µM (inactive)
same,GI50,KM12,> 100 µM (inactive)
same,GI50,LOX IMVI,> 100 µM (inactive)
same,GI50,M14,> 100 µM (inactive)
same,GI50,MCF7,> 100 µM (inactive)
same,GI50,MDA-MB-231,> 100 µM (inactive)
same,GI50,MDA-MB-435,> 100 µM (inactive)
same,GI50,MDA-N,> 100 µM (inactive)
same,GI50,MOLT-4,> 100 µM (inactive)
same,GI50,Malme-3M,> 100 µM (inactive)
same,GI50,NCI-H226,> 100 µM (inactive)
same,GI50,NCI-H23,> 100 µM (inactive)
same,GI50,NCI-H460,> 100 µM (inactive)
same,GI50,NCI-H522,> 100 µM (inactive)
same,GI50,NCI/ADR-RES,> 100 µM (inactive)
same,GI50,OVCAR-3,> 100 µM (inactive)
same,GI50,OVCAR-4,> 100 µM (inactive)
same,GI50,OVCAR-5,> 100 µM (inactive)
same,GI50,OVCAR-8,> 100 µM (inactive)
same,GI50,PC-3,> 100 µM (inactive)
same,GI50,RPMI-8226,> 100 µM (inactive)
same,GI50,RXF 393,> 100 µM (inactive)
same,GI50,SF-268,> 100 µM (inactive)
same,GI50,SF-295,> 100 µM (inactive)
same,GI50,SF-539,> 100 µM (inactive)
same,GI50,SK-MEL-28,> 100 µM (inactive)
same,GI50,SK-MEL-2,> 100 µM (inactive)
same,GI50,SK-MEL-5,> 100 µM (inactive)
same,GI50,SK-OV-3,> 100 µM (inactive)
same,GI50,SN12C,> 100 µM (inactive)
same,GI50,SNB-19,> 100 µM (inactive)
same,GI50,SR,63 µM (inactive)
same,GI50,SW-620,> 100 µM (inactive)
same,GI50,T47D,> 100 µM (inactive)
same,GI50,TK-10,> 100 µM (inactive)
same,GI50,U-251,> 100 µM (inactive)
same,GI50,UACC-257,> 100 µM (inactive)
same,GI50,UACC-62,> 100 µM (inactive)
